What was measured:
[1] = system: Streptomyces 85E; experiment: Inhibition of sporulation in Streptomyces 85E (filter paper disc on freshly seeded plate); assay type: cell-based, Streptomyces WEC478-85E; conditions: for zone of inhibition at 10 µg/disc: Streptomyces, 85E, 10 ug compound applied to disc; for Growth of the vegetative mycelia: disc assay, 10 ug
Description: adding the material to be tested for kinase inhibitory activity to a growing culture of a prokaryotic organism such as a streptomycete;
allowing the culture to grow for a period of time in the presence of the material; and
observing the culture for altered development relative to development of the prokaryotic organism grown in the absence of the material. Observation of altered development is indicative that the material has activity as an inhibitor of post-translational protein phosphorylation. In particular, the material to be tested can be added to a growing culture of the prokaryotic organism by placing a carrier disk bearing the material on a freshly seeded plate. Inhibition of the development of aerial mycelia and spore formation is an indicator that the material has activity as an inhibitor of post-translational protein phosphorylation.
We have used a wild strain of Streptomyces isolated from soil and designated Streptomyces WEC478-85E (hereinafter strain 85E) to test lichen extracts. Strain 85E has been deposited with the American Type, Culture Collection in accordance with the provisions of the Budapest treaty and has been assigned Accession Number ATCC 55824.
In the test assay, the lichen-extract to be tested was applied to a filter paper disk and then placed on a plate which has been freshly seeded with the strain 85E test organism. The test organism is then allowed to grow in the presence of the filter paper disk for a period of 24 to 36 hours, after which the organism is evaluated for altered development in the zone around the disk. An observation of an inhibition of the formation of aerial mycelia and spores, without inhibition of the growth of vegetative mycelia is particularly indicative of the presence of an inhibitor of post-translational phosphorylation.

[2] = system: Protein Kinase C; experiment: Protein Kinase C inhibition (PKC reaction); assay type: biochemical; conditions: 10 ng PKC, incubated 30 min. at 30° C. with 5 ug compound (about 600 uM in 25 ul)
Protocol: III. Protein Kinase C incubated 30 min. at 30° C. with 5 ug usnic acid or 5 ug vulpinic acid: 5 ug in the 50 ul PTK reaction mixture represents a concentration of about 300 uM for both of these compounds and twice that in the 25 ul PKC reactions. Thus, inhibition was detected for this particular protein tyrosine kinase and only minimally inhibitory for protein kinase C. Other protein kinases may show greater or lesser levels of inhibition.

[3] = target: Human c-Src kinase (Homo sapiens, UniProt P12931); experiment: Human c-Src kinase inhibition (PTK reaction); assay type: biochemical; conditions: 0.2 unit c-Src
Protocol: I. Human c-Src kinase incubated 30 min. at 30° C. with 5 ug usnic acid or-vulpinic acid: II. Human c-Src incubated 5 min. at 30° C. with 5 ug usnic acid or 5 ug vulpinic acid: 5 ug in the 50 ul PTK reaction mixture represents a concentration of about 300 uM for both of these compounds and twice that in the 25 ul PKC reactions. Thus, inhibition was detected for this particular protein tyrosine kinase and only minimally inhibitory for protein kinase C. Other protein kinases may show greater or lesser levels of inhibition.

Sequence of Human c-Src kinase (P12931 whole entry): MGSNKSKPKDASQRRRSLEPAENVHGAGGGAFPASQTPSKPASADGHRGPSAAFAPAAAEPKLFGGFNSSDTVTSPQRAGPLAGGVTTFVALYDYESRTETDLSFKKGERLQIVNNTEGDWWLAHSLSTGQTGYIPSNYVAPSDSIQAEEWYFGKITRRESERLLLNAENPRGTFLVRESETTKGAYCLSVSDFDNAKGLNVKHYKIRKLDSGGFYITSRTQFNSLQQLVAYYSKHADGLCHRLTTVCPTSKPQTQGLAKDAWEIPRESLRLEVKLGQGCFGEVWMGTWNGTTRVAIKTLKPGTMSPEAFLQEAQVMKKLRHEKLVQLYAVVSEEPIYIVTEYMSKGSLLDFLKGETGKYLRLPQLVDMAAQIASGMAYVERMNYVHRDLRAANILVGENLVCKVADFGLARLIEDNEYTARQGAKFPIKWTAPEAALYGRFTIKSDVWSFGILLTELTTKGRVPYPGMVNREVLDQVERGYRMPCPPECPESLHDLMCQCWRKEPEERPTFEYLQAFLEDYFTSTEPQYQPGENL

Compound | zone of inhibition at 10 µg/disc [1] [mm] | Growth of the vegetative mycelia [1] | Protein Kinase C reaction reading (control reaction 0.289) [2] | c-Src kinase reaction reading (control reaction 0.208) ([3]; incubated 5 min. at 30° C. with 5 ug compound (about 300 uM in 50 ul)) | c-Src kinase reaction reading (control reaction 0.562) ([3]; incubated 30 min. at 30° C. with 5 ug compound (about 300 uM in 50 ul))
CC(=O)c1c(O)c(C)c(O)c2c1OC1=CC(=O)C(C(C)=O)C(=O)C12C (stereo not shown) [usnic acid] | 15 | not inhibited |  |  | 
COC(=O)/C(=C1/OC(=O)C(c2ccccc2)=C1O)c1ccccc1 [vulpinic acid] | 15 | not inhibited | 0.230 | 0.180 | 0.483

Reference: patent US6455270B1, “Method for inhibiting eukaryotic protein kinases” (TerraGen Discovery Inc., priority 1997, dated 2002)
